# Assay results as given in patent publication US12527739B2 (Alcon Inc., priority 2022, dated 2026).
# Assays:
# [1] = Concentration of benzyl atropine in surfactant mixtures; assay type: physicochemical
# [2] = Solubility screen in two simple vehicles, pH 7.4; details: for pH of the formulation / Actual Concentration: pH 7.4; for Actual Concentration: 5 min vortexing
# [3] = HPβCD as a solubilizer for benzyl atropine; assay type: physicochemical; details: pH 3.1
# [4] = Concentration of benzyl atropine in freshly prepared simplified formulations; assay type: physicochemical
# Description: Considerable efforts were made to simplify the formulation to reduce the overall amount of surfactants (Table 11).
# The combination of two different species of surfactant was unexpected. […] The efficacy of this “double-buffered” vehicle was unexpected.
# [5] = Solubilizing mixtures with citrate and acetate buffers; details: for Actual Conc. / Final pH: 7.0% PEG-40 Stearate, 5.0% PEG-35 Castor Oil
# [6] = Solubility of benzyl atropine in surfactants (single excipients); assay type: physicochemical
# Experimental: Initially, single excipients were evaluated (Table 8).
# M3 muscarinic receptor = M3 muscarinic receptor (Homo sapiens, UniProt P20309); test: Muscarinic receptor radioligand displacement binding, M3
# M1 muscarinic receptor = target: T1, M1 muscarinic receptor (Homo sapiens, UniProt P11229); test: Muscarinic receptor radioligand displacement binding, M1
# T1 sequence (P11229 1-460): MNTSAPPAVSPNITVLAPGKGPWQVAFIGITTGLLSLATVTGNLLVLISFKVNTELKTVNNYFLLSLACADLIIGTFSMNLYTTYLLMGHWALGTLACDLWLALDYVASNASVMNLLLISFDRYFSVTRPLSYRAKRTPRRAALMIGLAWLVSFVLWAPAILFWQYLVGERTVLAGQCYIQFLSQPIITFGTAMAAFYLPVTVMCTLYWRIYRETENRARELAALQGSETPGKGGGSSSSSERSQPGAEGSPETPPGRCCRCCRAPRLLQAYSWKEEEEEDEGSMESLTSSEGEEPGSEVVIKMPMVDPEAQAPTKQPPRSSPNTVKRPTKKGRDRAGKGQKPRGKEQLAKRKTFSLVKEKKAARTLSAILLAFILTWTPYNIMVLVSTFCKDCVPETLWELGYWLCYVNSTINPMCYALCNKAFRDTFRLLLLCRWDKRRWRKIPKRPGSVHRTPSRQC
# [7] = tested on: form deprivation-induced myopia (FDM); test: Form deprivation-induced myopia (FDM) chick model; assay type: in vivo
# M4 muscarinic receptor = target: T2, M4 muscarinic receptor (Homo sapiens, UniProt P08173); test: Muscarinic receptor radioligand displacement binding, M4
# T2 sequence (P08173 1-479): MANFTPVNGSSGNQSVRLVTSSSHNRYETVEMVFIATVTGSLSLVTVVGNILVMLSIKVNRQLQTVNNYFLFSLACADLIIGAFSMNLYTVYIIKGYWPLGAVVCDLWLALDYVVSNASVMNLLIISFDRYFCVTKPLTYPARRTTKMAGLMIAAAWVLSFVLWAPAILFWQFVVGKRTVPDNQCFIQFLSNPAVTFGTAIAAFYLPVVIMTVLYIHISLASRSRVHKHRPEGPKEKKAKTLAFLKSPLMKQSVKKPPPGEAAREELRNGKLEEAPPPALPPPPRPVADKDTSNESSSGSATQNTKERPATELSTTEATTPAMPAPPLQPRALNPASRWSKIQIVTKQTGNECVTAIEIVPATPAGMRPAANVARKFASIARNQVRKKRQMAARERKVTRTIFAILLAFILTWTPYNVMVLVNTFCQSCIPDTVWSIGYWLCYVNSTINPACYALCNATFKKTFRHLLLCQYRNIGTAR
# [8] = pH adjustment of methyl atropine and benzyl atropine solutions, HPLC analysis; assay type: physicochemical; details: for Actual concentration (HPLC) / pH after incubation (24 hours): after pH adjustment; for Initial pH: before pH adjustment
# [9] = 0.3% Tyloxapol in Phosphate Buffer, pH 2.8
# [10] = 2.0% Poloxamer 407 in Phosphate Buffer, pH 2.8
# [11] = 4.0% Tween 80 in Phosphate Buffer, pH 2.9
# [12] = 5.0% PEG-35 Castor Oil in Acetic Acid Buffer, pH 2.8
# [13] = 5.0% PEG-35 Castor Oil in Phosphate Buffer, pH 2.8
# [14] = 7.0% PEG0-40 Stearate in Phosphate Buffer, pH 3.0
# [15] = 20% DMSO in Phosphate Buffer, pH 2.7
# [16] = 50% Glycerol in Phosphate Buffer in Phosphate Buffer, pH 2.5
# [17] = 50% Propylene Glycol in Phosphate Buffer, pH 2.9
# [18] = 0.43% Sodium Chloride, 10.0% HPβCD in 20 mM Phosphate Buffer
# [19] = 2.21% Mannitol, 10.0% HPβCD in 20 mM Phosphate Buffer
# [20] = 2.5% HPβCD in 20 mM Phosphate Buffer
# [21] = 5.0% HPβCD in 20 mM Phosphate Buffer
# [22] = 10.0% HPβCD in 20 mM Phosphate Buffer
# [23] = 0.78% Sodium Chloride in 30 mM Acetate Buffer, pH 4.55
# [24] = 3.5% PEG-400, 0.46% Sodium Chloride in 30 mM Acetate Buffer, pH 4.62
# [25] = 3.5% PEG-400, 5.0% PEG-35 Castor Oil, 0.37% Sodium Chloride in 30 mM Acetate Buffer, pH 4.67
# [26] = 5.0% PEG-35 Castor Oil, 0.81% Sodium Chloride in 30 mM Acetate Buffer, pH 4.57
# [27] = 7.0% PEG-40 Stearate, 0.58% Sodium Chloride in 30 mM Acetate Buffer, pH 4.64
# [28] = 7.0% PEG-40 Stearate, 0.65% Sodium Chloride in 5 mM Phosphate Buffer/30 mM Acetate Buffer
# [29] = 20 mM Citrate Buffer, pH 3.0 before API, 5.0% PEG-400
# [30] = 20 mM Citrate Buffer, pH 4.65 before API, 5.0% PEG-400
# [31] = 30 mM Acetate Buffer, pH 4.38 before API, 3.5% PEG-400
# [32] = 30 mM Acetate Buffer, pH 4.56 before API, 3.5% PEG-400
# [33] = 30 mM Acetate Buffer, pH 5.11 before API, 5.0% PEG-400
# Chain of M3 muscarinic receptor (P20309 whole entry): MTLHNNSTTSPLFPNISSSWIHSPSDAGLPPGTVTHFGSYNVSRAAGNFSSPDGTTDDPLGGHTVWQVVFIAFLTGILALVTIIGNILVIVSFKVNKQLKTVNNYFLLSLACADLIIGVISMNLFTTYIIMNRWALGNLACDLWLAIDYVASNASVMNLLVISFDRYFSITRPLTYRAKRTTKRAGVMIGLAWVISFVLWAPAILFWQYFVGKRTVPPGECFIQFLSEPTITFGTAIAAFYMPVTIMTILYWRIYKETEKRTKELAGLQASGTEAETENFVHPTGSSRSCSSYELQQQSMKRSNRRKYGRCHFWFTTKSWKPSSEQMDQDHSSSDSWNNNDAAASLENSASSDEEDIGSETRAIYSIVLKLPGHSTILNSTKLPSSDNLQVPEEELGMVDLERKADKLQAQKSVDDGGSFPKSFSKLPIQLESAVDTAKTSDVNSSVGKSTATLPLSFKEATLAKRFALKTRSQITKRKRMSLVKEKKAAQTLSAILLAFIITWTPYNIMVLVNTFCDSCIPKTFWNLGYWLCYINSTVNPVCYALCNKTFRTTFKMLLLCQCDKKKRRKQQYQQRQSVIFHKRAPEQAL
smiles,measurement,setting,value
"CN1C2CCC1CC(OC(=O)C(CO)(Cc1ccccc1)c1ccccc1)C2 (racemic) [Benzyl Atropine, benzyl atropine]",Actual Concentration,[1]; [9],0.19 mg/g
same,pH after API Dissolution,[1]; [9],7.3
same,Actual Concentration,[1]; [10],0.20 mg/g
same,pH after API Dissolution,[1]; [10],7.4
same,Actual Concentration,[1]; [11],0.58 mg/g
same,pH after API Dissolution,[1]; [11],7.3
same,Actual Concentration,[1]; [12],1.16 mg/g
same,pH after API Dissolution,[1]; [12],3.1
same,Actual Concentration,[1]; [13],0.68 mg/g
same,pH after API Dissolution,[1]; [13],7.3
same,Actual Concentration,[1]; [14],0.47 mg/g
same,pH after API Dissolution,[1]; [14],7.4
same,Actual Concentration,[1]; [15],0.30 mg/g
same,pH after API Dissolution,[1]; [15],8.1
same,Actual Concentration,[1]; [16],0.84 mg/g
same,pH after API Dissolution,[1]; [16],7.6
same,Actual Concentration,[1]; [17],1.56 mg/g
same,pH after API Dissolution,[1]; [17],8.3
same,pH of the formulation,[2]; 30 mM Phosphate Buffer,7.9
same,Actual Concentration,[2]; 30 mM Phosphate Buffer,0.29 mg/g
same,pH of the formulation,[2]; Phosphate Buffered Saline,8.0
same,Actual Concentration,[2]; Phosphate Buffered Saline,0.30 mg/g
same,dissolution in vehicle (in words),[2]; both vehicles: 30 mM phosphate buffer pH 7.4 and phosphate-buffered saline pH 7.4,did not entirely dissolve
same,Actual Concentration,[3]; [18],5.92 mg/g
same,Final pH,[3]; [18],5.8
same,Actual Concentration,[3]; [19],5.23 mg/g
same,Final pH,[3]; [19],5.7
same,Concentration Dissolved,[3]; [20],3.53 mg/g
same,Final pH,[3]; [20],7.1
same,Concentration Dissolved,[3]; [21],4.16 mg/g
same,Final pH,[3]; [21],7.0
same,Concentration Dissolved,[3]; [22],4.51 mg/g
same,Final pH,[3]; [22],7.1
same,Actual Concentration,[4]; [23],0.92 mg/g
same,Final Osmolality,[4]; [23],263.5 mOsm/kg
same,Final pH,[4]; [23],7.2
same,Actual Concentration,[4]; [24],1.79 mg/g
same,Final Osmolality,[4]; [24],287 mOsm/kg
same,Final pH,[4]; [24],7.1
same,Actual Concentration,[4]; [25],3.95 mg/g
same,Final Osmolality,[4]; [25],293 mOsm/kg
same,Final pH,[4]; [25],7.4
same,Actual Concentration,[4]; [26],3.02 mg/g
same,Final Osmolality,[4]; [26],306.5 mOsm/kg
same,Final pH,[4]; [26],7.5
same,Actual Concentration,[4]; [27],4.62 mg/g
same,Final Osmolality,[4]; [27],264.5 mOsm/kg
same,Final pH,[4]; [27],7.4
same,Actual Concentration,[4]; [28],5.32 mg/g
same,Final Osmolality,[4]; [28],291 mOsm/kg
same,Final pH,[4]; [28],6.4
same,highest achievable concentration that did not re-precipitate,"[4]; in the presence of 3.5% PEG-400, 5% PEG-35 castor oil, and 0.37% NaCl",3.9 mg/g
same,Actual Conc.,[5]; [29],5.73 mg/g
same,Final pH,[5]; [29],4.4
same,Actual Conc.,[5]; [30],2.38 mg/g
same,Final pH,[5]; [30],5.8
same,Actual Conc.,[5]; [31],5.49 mg/g
same,Final pH,[5]; [31],4.9
same,Actual Conc.,[5]; [32],5.42 mg/g
same,Final pH,[5]; [32],5.5
same,Actual Conc.,[5]; [33],3.59 mg/g
same,Final pH,[5]; [33],7.7
same,saturated solubility limit,"[5]; from stability assessment, compound crashed out of solution over storage",~5 mg/g
same,Actual Concentration,"[6]; 50% Propylene Glycol in 30 mM Phosphate Buffer, pH 7.4",1.85 mg/g
same,Actual Concentration,[6]; PEG-400 (neat),8.01 mg/g
same,drug solubility,[6]; PEG-400 (neat),0.8%
same,Actual Concentration,[6]; Polypropylene Glycol (neat),7.86 mg/g
same,Actual Concentration,[6]; Propylene Glycol (neat),6.96 mg/g
same,binding to the receptor (in words),M3 muscarinic receptor,not to bind at all
same,Ki,M1 muscarinic receptor,830 nM
same,binding to the receptor (in words),M1 muscarinic receptor,bind weakly
same,efficacy compared with atropine in FDM chick model,"[7]; at approximately ten-fold lower concentration than atropine, FIG. 1 Panel B (24 nmol vs 240 nmol)",as effective as atropine
same,efficacy in FDM chick model,"[7]; intravitreal injection day 2 and day 4, readout day 5, FIG. 1 Panel A",effective
same,change in refractive error (goggled eye value minus ungoggled eye value),"[7]; with respect to 5% v/v ethanol solution, FIG. 1 Panel A",significantly decreased
same,Ki,M4 muscarinic receptor,600 nM
same,binding to the receptor (in words),M4 muscarinic receptor,bind weakly
same,Actual concentration (HPLC),"[8]; 30 mM Phosphate Buffer, pH 7.4",0.05 mg/g
same,pH after incubation (24 hours),"[8]; 30 mM Phosphate Buffer, pH 7.4",6.23
same,Initial pH,"[8]; 30 mM Phosphate Buffer, pH 7.4",7.7
same,Actual concentration (HPLC),[8]; Phosphate Buffered Saline,0.04 mg/g
same,pH after incubation (24 hours),[8]; Phosphate Buffered Saline,5.7
same,Initial pH,[8]; Phosphate Buffered Saline,7.7
same,dissolution upon pH adjustment (in words),[8]; lowered pH of the vehicle,did not fully dissolve
